Results published in ChEMBL document CHEMBL4406890, “Discovery of a novel bicyclic compound, DS54360155, as an orally potent analgesic without mu-opioid receptor agonist activity” (Bioorg Med Chem Lett, 2019).

Legend:
Mus musculus [1] = assay: Analgesic activity in ddY mouse model of acetic acid-induced writhing assessed as inhibition of writhing numbers at 30 mg/kg, po pretreated for 30 mins followed by acetic acid challenge and measured for 25 mins relative to control; type: functional
[2] = Metabolic stability in CD1 mouse liver microsomes assessed as parent compound remaining incubated for 0.5 hrs in presence of beta-NADP by LC-MS/MS analysis; type: ADME, Microsome; conditions: read-out: Stability
hERG (KCNH2) = hERG (KCNH2) (Homo sapiens, UniProt Q12809); assay: Inhibition of human ERG at 10 uM relative to control
Mus musculus [3] = assay: Analgesic activity in oral dosed ddY mouse model of acetic acid-induced writhing pretreated for 30 mins followed by acetic acid challenge and measured for 25 mins; type: functional
Mus musculus [4] = assay: Analgesic activity in ddY mouse assessed as reduction in total time spent in paw licking and biting during initial phase at 30 mg/kg, po pretreated for 30 mins followed by formalin challenge and measured for 15 mins post formalin challenge by formalin test relative to control; type: functional
Mu-type opioid receptor [5] = target: T1, Mu-type opioid receptor (Homo sapiens, UniProt P35372); assay: Agonist activity at human mu opioid receptor expressed in CHOK1 cells assessed as inhibition of forskolin-induced cAMP production by FRET assay; type: cell-based
[6] = 1-Octanol/phosphate buffered-saline distribution coefficient, logD of compound at pH 7.4; type: physicochemical
Mus musculus [7] = assay: Analgesic activity in ddY mouse model of acetic acid-induced writhing assessed as inhibition of writhing numbers at 3 mg/kg, po pretreated for 30 mins followed by acetic acid challenge and measured for 25 mins relative to control; type: functional
Mus musculus [8] = assay: Analgesic activity in ddY mouse model of acetic acid-induced writhing assessed as inhibition of writhing numbers at 10 mg/kg, po pretreated for 30 mins followed by acetic acid challenge and measured for 25 mins relative to control; type: functional
[9] = AUC in ddY mouse at 10 mg/kg, po measured after 3 mins by LC-MS/MS analysis; type: ADME, organism-based; parameters: time < 0.05 hr, dose 10 mg/kg, route oral; conditions: in vivo
[10] = Cmax in ddY mouse at 10 mg/kg, po measured after 3 mins by LC-MS/MS analysis; type: ADME, organism-based; parameters: dose 10 mg/kg, route oral; conditions: in vivo
[11] = Half-life in ddY mouse at 10 mg/kg, po measured after 3 mins by LC-MS/MS analysis; type: ADME, organism-based; conditions: in vivo
[12] = Clearance in ddY mouse at 1 mg/kg, iv measured after 3 mins by LC-MS/MS analysis; type: ADME, organism-based; conditions: in vivo
[13] = Volume of distribution in ddY mouse at 1 mg/kg, iv measured after 3 mins by LC-MS/MS analysis; type: ADME, organism-based; conditions: in vivo
Mu-type opioid receptor [14] = target: T1, Mu-type opioid receptor; assay: Displacement of [3H]-diprenorphin from human mu opioid receptor incubated for 1 hr; type: ADME
Mu-type opioid receptor [15] = target: T1, Mu-type opioid receptor; assay: Agonist activity at human mu opioid receptor expressed in CHOK1 cells assessed as inhibition of forskolin-induced cAMP production by FRET assay relative to DAMGO; type: cell-based

hERG (KCNH2), sequence (Q12809 whole entry): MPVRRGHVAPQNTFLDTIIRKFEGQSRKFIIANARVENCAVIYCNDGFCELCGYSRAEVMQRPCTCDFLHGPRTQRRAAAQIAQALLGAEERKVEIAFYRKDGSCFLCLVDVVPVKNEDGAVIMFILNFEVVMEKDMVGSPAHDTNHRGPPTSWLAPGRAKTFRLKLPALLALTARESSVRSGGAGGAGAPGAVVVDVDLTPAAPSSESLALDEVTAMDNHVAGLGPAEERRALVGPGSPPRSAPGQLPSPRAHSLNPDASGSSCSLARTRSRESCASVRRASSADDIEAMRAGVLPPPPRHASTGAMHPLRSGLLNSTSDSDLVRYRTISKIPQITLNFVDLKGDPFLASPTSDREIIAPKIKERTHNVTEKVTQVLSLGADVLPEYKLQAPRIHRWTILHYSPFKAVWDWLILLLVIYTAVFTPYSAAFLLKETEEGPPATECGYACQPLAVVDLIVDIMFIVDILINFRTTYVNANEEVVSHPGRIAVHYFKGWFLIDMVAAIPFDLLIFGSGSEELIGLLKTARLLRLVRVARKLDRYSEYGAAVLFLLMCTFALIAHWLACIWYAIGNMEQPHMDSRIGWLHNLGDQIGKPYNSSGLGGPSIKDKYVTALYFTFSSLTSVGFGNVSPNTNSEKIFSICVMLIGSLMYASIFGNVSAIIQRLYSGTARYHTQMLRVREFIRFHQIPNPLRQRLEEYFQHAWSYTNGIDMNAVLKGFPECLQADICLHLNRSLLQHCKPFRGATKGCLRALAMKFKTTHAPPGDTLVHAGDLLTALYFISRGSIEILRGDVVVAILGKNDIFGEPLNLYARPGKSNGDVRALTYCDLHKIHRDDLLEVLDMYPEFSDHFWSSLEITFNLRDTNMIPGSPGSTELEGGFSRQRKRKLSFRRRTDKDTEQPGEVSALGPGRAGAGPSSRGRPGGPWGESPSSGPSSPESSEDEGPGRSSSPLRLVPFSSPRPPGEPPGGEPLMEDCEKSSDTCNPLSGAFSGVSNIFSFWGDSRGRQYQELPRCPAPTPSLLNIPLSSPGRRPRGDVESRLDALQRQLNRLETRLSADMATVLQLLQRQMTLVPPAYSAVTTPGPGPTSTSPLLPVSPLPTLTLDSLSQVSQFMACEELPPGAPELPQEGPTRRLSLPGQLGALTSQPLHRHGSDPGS
T1 sequence (P35372 whole entry): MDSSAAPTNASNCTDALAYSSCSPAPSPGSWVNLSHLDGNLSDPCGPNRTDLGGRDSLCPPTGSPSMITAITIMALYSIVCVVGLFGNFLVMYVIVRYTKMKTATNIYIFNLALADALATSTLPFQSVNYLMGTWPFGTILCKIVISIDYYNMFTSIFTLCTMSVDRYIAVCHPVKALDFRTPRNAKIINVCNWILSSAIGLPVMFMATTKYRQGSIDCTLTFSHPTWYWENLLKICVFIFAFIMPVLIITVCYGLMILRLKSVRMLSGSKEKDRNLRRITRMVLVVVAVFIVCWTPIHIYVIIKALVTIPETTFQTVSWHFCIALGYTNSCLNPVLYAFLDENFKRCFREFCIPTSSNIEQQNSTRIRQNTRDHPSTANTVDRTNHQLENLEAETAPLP

| SMILES | inhibition in vivo at 30 mg/kg (Mus musculus [1]) | remaining at 0.5 h [2] | inhibition at 10 µM (hERG (KCNH2)) | ED50 (Mus musculus [3]) | inhibition in vivo at 30 mg/kg (Mus musculus [4]) | EC50 (Mu-type opioid receptor [5]) | logD [6] | inhibition in vivo at 3 mg/kg (Mus musculus [7]) | inhibition in vivo at 10 mg/kg (Mus musculus [8]) | AUC at 0.05 h [9] | Cmax [10] | half-life [11] | clearance [12] | Vd [13] | IC50 (Mu-type opioid receptor [14]) | Emax (Mu-type opioid receptor [15]) |
| --- | --- | --- | --- | --- | --- | --- | --- | --- | --- | --- | --- | --- | --- | --- | --- | --- |
| C/C=C1/CN2CC[C@H]1C(=O)c1[nH]c3ccccc3c1C2.O=S(=O)(O)O | 49% | 34% | 63% | 32 mg/kg | 43% | > 100 µM | – | – | – | – | – | – | – | – | – | – |
| CN1C(=O)c2[nH]c3ccccc3c2CN2CC[C@H]1C2.O=S(=O)(O)O | 95% | 99% | 14% | 12 mg/kg | 83% | > 100 µM | 0.7 | 19% | 23% | 5.8 µM·h | 2150 nM | 2.27 h | 24.9 mL/min/kg | 1.72 L/kg | > 100 µM | 19% |
| CN1C(=O)c2[nH]c3ccccc3c2CN2CCC[C@H]1C2 | 77% | 74% | 38% | 23 mg/kg | – | – | 1 | – | – | 1.59 µM·h | 720 nM | 2.18 h | – | – | – | – |
| CN1C(=O)c2[nH]c3ccccc3c2CN2CC[C@@H]1C2.O=S(=O)(O)O | 49% | > 100% | 23% | 27 mg/kg | 30% | > 100 µM | 0.7 | – | – | 12.2 µM·h | 2990 nM | 2.52 h | 12.9 mL/min/kg | 1.14 L/kg | > 100 µM | 18% |
| CCN1CCCC(=O)c2[nH]c3ccccc3c2C1 | 36% | 49% | 73% | – | – | – | 1.3 | – | – | – | – | – | – | – | – | – |
| CN1C(=O)c2[nH]c3ccccc3c2CN2CCC[C@@H]1C2 | 65% | 82% | – | – | – | – | 0.9 | – | – | – | – | – | – | – | – | – |
| CN1CCCC(=O)c2[nH]c3ccccc3c2C1 | 31% | 53% | 50% | – | – | – | 1.1 | – | – | – | – | – | – | – | – | – |
| CC12CCCN(CC1)Cc1c([nH]c3ccccc13)C2=O (racemic) | 21% | 91% | 88% | – | – | – | 1.5 | – | – | – | – | – | – | – | – | – |
| CN1C(=O)c2[nH]c3ccccc3c2CN2CCC1(C)C2 (racemic) | 37% | 93% | 36% | – | – | – | 0.7 | – | – | – | – | – | – | – | – | – |
| O=C1c2[nH]c3ccccc3c2CN2CCC3(CCCN13)C2 (racemic) | 47% | 82% | 13% | – | – | – | 1.2 | – | – | – | – | – | – | – | – | – |
| CCCN1C(=O)c2[nH]c3ccccc3c2CN2CCC1C2 (racemic) | 44% | 72% | 43% | – | – | – | 1.6 | – | – | – | – | – | – | – | – | – |
| O=C1c2[nH]c3ccccc3c2CN2CCC(C2)N1C1CC1 (racemic) | 55% | 92% | 19% | – | – | – | 1.1 | – | – | – | – | – | – | – | – | – |
| CN1C(=O)c2[nH]c3ccccc3c2CN2CCC1C2.O=S(=O)(O)O (racemic) | 83% | > 100% | 26% | 21 mg/kg | – | – | 0.7 | – | – | 3.29 µM·h | 1460 nM | 1.69 h | – | – | – | – |
| CCN1C(=O)c2[nH]c3ccccc3c2CN2CCC1C2 (racemic) | 43% | 91% | 14% | – | – | – | 1.1 | – | – | – | – | – | – | – | – | – |
